The test addresses T1, Acyl-CoA : cholesterol acyltransferase (ACAT) (Rattus norvegicus, UniProt Q7TQM4).
T1 construct: from the mucosal microsome fraction of the small intestine of male, 6-week old Sprague-Dawley rats; from tissue; host or cells: mucosal microsome fraction of the small intestine of male 6-week old Sprague-Dawley rats, fasted for 20 hours
T1 sequence (Q7TQM4 1-524): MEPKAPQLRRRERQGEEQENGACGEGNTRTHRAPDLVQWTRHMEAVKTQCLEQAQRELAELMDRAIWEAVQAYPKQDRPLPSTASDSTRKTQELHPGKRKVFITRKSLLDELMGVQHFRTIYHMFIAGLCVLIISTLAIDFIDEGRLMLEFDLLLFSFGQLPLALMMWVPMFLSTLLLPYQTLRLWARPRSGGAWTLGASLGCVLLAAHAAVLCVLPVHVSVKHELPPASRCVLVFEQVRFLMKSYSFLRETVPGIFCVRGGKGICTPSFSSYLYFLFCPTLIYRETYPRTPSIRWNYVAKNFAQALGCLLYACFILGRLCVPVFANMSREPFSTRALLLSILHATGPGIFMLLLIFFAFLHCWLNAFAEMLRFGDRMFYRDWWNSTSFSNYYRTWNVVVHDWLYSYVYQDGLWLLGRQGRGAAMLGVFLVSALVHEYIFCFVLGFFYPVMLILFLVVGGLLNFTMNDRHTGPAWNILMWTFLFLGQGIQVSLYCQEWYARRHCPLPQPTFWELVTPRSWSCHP
The experiment in a line: Acyl-CoA : cholesterol acyltransferase (ACAT) inhibitory activity: production of labeled cholesterol ester from [1-^14 C] oleoyl-CoA and endogenous cholesterol. The test is classed as biochemical. The conditions noted are these: for inhibition at 1 µM: 10^-6 M test compound. How it is done:
1. Acyl-CoA : cholesterol acyltransferase (ACAT) inhibitory activity.
The enzyme ACAT was prepared by the method of Heider et al. described in Journal of Lipid Research, Vol. 24, page 1127 (1982), from the mucosal microsome fraction of the small intestine of male, 6-week old Sprague-Dawley rats which had been fasted for 20 hours.
ACAT activity was calculated by the method of Helgerud et al. described in Journal of Lipid Research, Vol. 22, page 271 (1981), namely, by measuring the amount of the labeled cholesterol ester produced from [1-^14 C] oleoyl-CoA and endogenous cholesterol.
Inhibition rates (%) of the production of the labeled cholesterol ester wherein 10^-6 M-10^-8 M of test compounds were added are shown as an index of ACAT inhibitory activity in Table 1.

Read-outs that look alike come from different tables or passages of the source.

Regarding `O=C(Nc1ccc(Cl)cc1)Nc1cnc2ccc(Cl)cc2c1-c1ccccc1` [Compound B, 6-chloro-3-[3-(4-chlorophenyl)ureido]-4-phenylquinoline, reference compound], the “ACAT inhibitory activity (in words)” value is “excellent ACAT inhibitory activities”. Besides, for the setting “read-out: ACAT Inhibition Rate”, the inhibition at 1 µM turned out to be 54.5%. Moreover, the “ACAT inhibitory activity (in words)” value (listed as compound B) was “strong ACAT inhibitory activity”. As to `O=C(Nc1ccc(F)cc1F)Nc1cnc2ccc(Cl)cc2c1-c1ccccc1` [Example 1, 6-chloro-3-[3-(2,4-difluorophenyl)ureido]-4-phenylquinoline], the inhibition at 1 µM (read-out: ACAT Inhibition Rate) was found to be 88.3%. The same measure, in the same setting: with `O=C(Nc1ccccc1F)Nc1cnc2ccc(Cl)cc2c1-c1ccccc1` [Example 4, 6-Chloro-3-[3-(2-fluorophenyl)ureido]-4-phenylquinoline] the figure was 75%; with `O=C(Nc1ccc(F)cc1F)Nc1cnc2ccc(Br)cc2c1-c1ccccc1` [Example 11, 6-Bromo-3-[3-(2,4-difluorophenyl)ureido]-4-phenylquinoline], 85.5%; with `Cc1ccc2ncc(NC(=O)Nc3ccc(F)cc3F)c(-c3ccccc3)c2c1` [Example 13, 3-[3-(2,4-Difluorophenyl)ureido]-6-methyl-4-phenylquinoline], 84.5%. Same read-out and setting: in the case of `CCc1ccc2ncc(NC(=O)Nc3ccc(F)cc3F)c(-c3ccccc3)c2c1` [Example 14, 3-[3-(2,4-Difluorophenyl)ureido]-6-ethyl-4-phenylquinoline] it was 90.1%. The same measure, in the same setting: in the case of `CC(C)c1ccc2ncc(NC(=O)Nc3ccc(F)cc3F)c(-c3ccccc3)c2c1` [Example 15, 3-[3-(2,4-Difluorophenyl)ureido]-6-isopropyl-4-phenylquinoline] it was 91.6%; in that of `O=C(Nc1ccc(F)cc1F)Nc1cnc2ccc(C(F)(F)F)cc2c1-c1ccccc1` [Example 17, 3-[3-(2,4-Difluorophenyl)ureido]-4-phenyl-6-trifluoromethylquinoline], 90.1%. As to `COc1ccc2ncc(NC(=O)Nc3ccc(F)cc3F)c(-c3ccccc3)c2c1` [Example 18, 3-[3-(2,4-Difluorophenyl)ureido]-6-methoxy-4-phenylquinoline], the inhibition at 1 µM (read-out: ACAT Inhibition Rate) was 85.9%. Same read-out and setting: in the case of `O=C(Nc1ccc(F)cc1F)Nc1cnc2ccccc2c1-c1ccccc1Cl` [Example 21, 4-(2-Chlorophenyl)-3-[3-(2,4-difluorophenyl)ureido]quinoline] it was 91.8%. Same read-out and setting: in the case of `O=C(Nc1ccc(F)cc1F)Nc1cnc2ccc(Cl)cc2c1-c1ccccc1F` [Example 22, 6-Chloro-3-[3-(2,4-difluorophenyl)ureido]-4-(2-fluorophenyl)quinoline] it was 96.8%; in that of `O=C(Nc1ccc(F)cc1F)Nc1cnc2ccc(Cl)cc2c1-c1cccc(Cl)c1` [Example 24, 6-Chloro-4-(3-chlorophenyl)-3-[3-(2,4-difluorophenyl)ureido]quinoline], 88.5%. Same read-out and setting: with `O=C(Nc1ccc(F)cc1F)Nc1cnc2ccc(Cl)cc2c1-c1ccc(Cl)cc1` [Example 25, 6-Chloro-4-(4-chlorophenyl)-3-[3-(2,4-difluorophenyl)ureido]quinoline] the figure was 77%. With `Cc1ccc(-c2c(NC(=O)Nc3ccc(F)cc3F)cnc3ccc(Cl)cc23)cc1` [Example 26, 6-Chloro-3-[3-(2,4-difluorophenyl)ureido]-4-(4-methylpheynyl)quinoline], the inhibition at 1 µM (read-out: ACAT Inhibition Rate) is 87.4%. Same read-out and setting: in the case of `Cc1ccccc1-c1c(NC(=O)Nc2ccc(F)cc2F)cnc2ccc(Cl)cc12` [Example 27, 6-Chloro-3-[3-(2,4-difluorophenyl)ureido]-4-(2-methylphenyl)quinoline] it was 97.2%. On the same count and under the same terms, in the case of `COc1ccc(-c2c(NC(=O)Nc3ccc(F)cc3F)cnc3ccc(Cl)cc23)cc1` [Example 28, 6-Chloro-3-[3-(2,4-difluorophenyl)ureido]-4-(4-methoxyphenyl)quinoline] it was 92.7%.

On to `COc1ccccc1-c1c(NC(=O)Nc2ccc(F)cc2F)cnc2ccc(Cl)cc12` [Example 29], for which the inhibition at 1 µM (read-out: ACAT Inhibition Rate) is 98.2%. Still for that read-out and setting: in the case of `Cc1ccc2ncc(NC(=O)Nc3ccc(F)cc3F)c(-c3ccccc3C)c2c1` [Example 31, 3-[3-(2,4-Difluorophenyl)ureido]-6-methyl-4-(2-methylphenyl)quinoline] it was 96.9%; in that of `CCc1ccc2ncc(NC(=O)Nc3ccc(F)cc3F)c(-c3ccccc3Cl)c2c1` [Example 33, 4-(2-Chlorophenyl)-3-[3-(2,4-difluorophenyl)ureido]-6-ethylquinoline], 99.2%. Same read-out and setting: with `CC(C)c1ccc2ncc(NC(=O)Nc3ccc(F)cc3F)c(-c3ccccc3Cl)c2c1` [Example 34, 4-(2-Chlorophenyl)-3-[3-(2,4-difluorophenyl)ureido]-6-isopropylquinoline] the figure was 99.3%; with `CCCCc1ccc2ncc(NC(=O)Nc3ccc(F)cc3F)c(-c3ccccc3Cl)c2c1` [Example 35, 6-Butyl-4-(2-chlorophenyl)-3-[3-(2,4-difluorophenyl)ureido]quinoline], 97%; with `O=C(Nc1ccc(F)cc1F)Nc1cnc2ccc(F)cc2c1-c1ccccc1Cl` [Example 36, 4-(2-Chlorophenyl)-3-[3-(2,4-difluorophenyl)ureido]-6-fluoroquinoline], 95.6%.

Turning to `CSc1ccc2ncc(NC(=O)Nc3ccc(F)cc3F)c(-c3ccccc3)c2c1` [Example 37, 3-[3-(2,4-Difluorophenyl)ureido]-6-methylthio-4-phenylquinoline], for the setting “read-out: ACAT Inhibition Rate”, the inhibition at 1 µM was determined as 87.8%. Take `Cc1cc(Cl)cc2c(-c3ccccc3Cl)c(NC(=O)Nc3ccc(F)cc3F)cnc12` [Example 38, 6-Chloro-4-(2-chlorophenyl)-3-[3-(2,4-difluorophenyl)ureido]-8-methylquinoline]: where the note is “read-out: ACAT Inhibition Rate”, the inhibition at 1 µM was 98.3%. Take `Cc1cc(C)c2ncc(NC(=O)Nc3ccc(F)cc3F)c(-c3ccccc3C)c2c1` [Example 39, 3-[3-(2,4-Difluorophenyl)ureido]-6,8-dimethyl-4-(2-methylphenyl)quinoline]: the inhibition at 1 µM (read-out: ACAT Inhibition Rate) was 98.5%. Besides, the inhibition at 0.01 µM (10^-8 M test compound, read-out: ACAT Inhibition Rate) is 43.3%.

Turning to `O=C(Nc1cnc2ccc(Cl)cc2c1-c1ccccc1)Nc1c(F)cccc1F` [Example 46, 6-chloro-3-[3-(2,6-difluorophenyl)ureido]-4-phenylquinoline], for the setting “read-out: ACAT Inhibition Rate”, the inhibition at 1 µM stood at 75.7%.

Consider `O=C(Nc1ccc(Cl)cc1)Nc1cnc2ccc(Cl)cc2c1-c1ccccc1Cl` [Example 50, 6-Chloro-4-(2-Chlorophenyl)-3-[3-(4-chlorophenyl)ureido]quinoline], for which, for the setting “read-out: ACAT Inhibition Rate”, the inhibition at 1 µM came to 96.8%. On the same count and under the same terms, in the case of `Cc1cc(C)c2ncc(NC(=O)Nc3ccc(Cl)cc3)c(-c3ccccc3Cl)c2c1` [Example 51, 4-(2-Chlorophenyl)-3-[3-(4-chlorophenyl)ureido]-6,8-dimethylquinoline] it was 97.2%; in that of `CSc1ccccc1-c1c(NC(=O)Nc2ccc(F)cc2F)cnc2ccc(Cl)cc12` [Example 52, 6-Chloro-3-[3-(2,4-difluorophenyl)ureido]-4-(2-methylthiophenyl)quinoline], 97.9%; in that of `O=C(Nc1ccc(F)cc1F)Nc1cnc2ccc(SC(F)F)cc2c1-c1ccccc1` [Example 53, 6-Difluoromethylthio-3-[3-(2,4-difluorophenyl)ureido]-4-phenylquinoline], 85.7%. Still for that read-out and setting: with `O=C(Nc1ccc(F)cc1F)Nc1cnc2ccc(OC(F)F)cc2c1-c1ccccc1` [Example 54, 6-Difluoromethoxy-3-[3-(2,4-difluorophenyl)ureido]-4 4-phenylquinoline] the figure was 80.7%; with `Cc1cc(Cl)c2ncc(NC(=O)Nc3ccc(F)cc3F)c(-c3ccccc3Cl)c2c1` [Example 55, 8-Chloro-4-(2-chlorophenyl)-3-[3-(2,4-difluorophenyl)ureido]-6-methylquinoline], 97.6%; with `Cc1ccccc1-c1c(NC(=O)Nc2ccc(F)c([N+](=O)[O-])c2)cnc2ccc(Cl)cc12` [Example 58, 6-Chloro-3-[3-(4-fluoro-3-nitrophenyl)ureido]-4-(2-methylphenyl)quinoline], 88.5%. For the compound `CSc1ccccc1-c1c(NC(=O)Nc2ccc(F)cc2F)cnc2ccc(C)cc12` [Example 59, 3-[3-(2,4-Difluorophenyl)ureido]-6-mehtyl-4-(2-mehtylthiophenyl)quinoline], the inhibition at 1 µM (read-out: ACAT Inhibition Rate) came to 97.5%. On to `COc1ccc(-c2c(NC(=O)Nc3ccc(F)cc3F)cnc3ccc(Cl)cc23)cc1OC` [Example 60, 6-Chloro-3-[3-(2,4-difluorophenyl)ureido]-4-(3,4-dimethoxyphenyl)quinoline], for which the inhibition at 1 µM (read-out: ACAT Inhibition Rate) amounted to 95.1%.

As usually defined, the inhibition is how much of the control response was suppressed.

Values taken from patent US5254565A, “Quinoline derivatives, their production and use” (priority 1988, dated 1993).
